Results taken from ChEMBL document CHEMBL3885881, “DrugMatrix”.

Species on record: Rattus norvegicus
Assay: DrugMatrix - Regimen: Daily Repeat
Assay type: toxicity, organism-based, Sprague-Dawley
Design: regimen Daily Repeat, gender Male, age 6-8 weeks
Conditions: in vivo, po, route oral GAVAGE, vehicle 100 % WATER; for ABSOLUTE BASOPHIL / ABSOLUTE EOSINOPHIL / ABSOLUTE LYMPHOCYTE / ABSOLUTE MONOCYTE / ABSOLUTE SEGMENTED NEUTROPHIL / BASOPHIL / EOSINOPHIL / ERYTHROCYTE COUNT / HEMATOCRIT / HEMOGLOBIN / LEUKOCYTE COUNT / LYMPHOCYTE / MEAN CORPUSCULAR HEMOGLOBIN / MEAN CORPUSCULAR HEMOGLOBIN CONCENTRATION / MEAN CORPUSCULAR VOLUME / MONOCYTE / NEUTROPHIL / NUCLEATED RED BLOOD CELLS / PLATELET COUNT: tissue Blood; for ALANINE AMINOTRANSFERASE / ALBUMIN / ALKALINE PHOSPHATASE / ASPARTATE AMINOTRANSFERASE / BLOOD UREA NITROGEN / CARBON DIOXIDE / CHLORIDE / CHOLESTEROL / CREATINE PHOSPHOKINASE / CREATININE / GLUCOSE / LACTATE DEHYDROGENASE / LIPASE / PHOSPHORUS / POTASSIUM / SODIUM / TOTAL BILIRUBIN / TOTAL PROTEIN / URIC ACID: tissue Plasma
[1] = 0 mg/kg, 72 h, dose level Control, time 3 day
[2] = 0 mg/kg, 120 h, dose level Control, time 5 day
[3] = 120 mg/kg, 72 h, dose level Low, time 3 day

## CCN(CC)CCNC(=O)c1cc(S(C)(=O)=O)ccc1OC [TIAPRIDE]
[1]
  ABSOLUTE BASOPHIL: 0 CELLS/uL
  ABSOLUTE EOSINOPHIL: 151.33 CELLS/uL
  ABSOLUTE LYMPHOCYTE: 10599.5 CELLS/uL
  ABSOLUTE MONOCYTE: 109.5 CELLS/uL
  ABSOLUTE SEGMENTED NEUTROPHIL: 1139.67 CELLS/uL
  BASOPHIL: 0%
  EOSINOPHIL: 0.83%
  ERYTHROCYTE COUNT: 5.54 x10E6/uL
  HEMATOCRIT: 35.35%
  HEMOGLOBIN: 13.22 G/DL
  LEUKOCYTE COUNT: 12 x10E3/uL
  LYMPHOCYTE: 89%
  MEAN CORPUSCULAR HEMOGLOBIN: 23.88 pg
  MEAN CORPUSCULAR HEMOGLOBIN CONCENTRATION: 37.4 G/DL
  MEAN CORPUSCULAR VOLUME: 63.85 fL
  MONOCYTE: 1%
  NEUTROPHIL: 9.17%
  NUCLEATED RED BLOOD CELLS: 0 /100WBC
  PLATELET COUNT: 1333.33 x10E3/uL
  ALANINE AMINOTRANSFERASE: 53.17 u/L
  ALBUMIN: 4.32 G/DL
  ALKALINE PHOSPHATASE: 404.33 u/L
  ASPARTATE AMINOTRANSFERASE: 83.17 u/L
  BLOOD UREA NITROGEN: 15.67 mg/dL
  CARBON DIOXIDE: 27.33 mmol/L
  CHLORIDE: 101.83 MEQ/L
  CHOLESTEROL: 68.67 mg/dL
  CREATINE PHOSPHOKINASE: 276.17 u/L
  CREATININE: 0.18 mg/dL
  GLUCOSE: 163.5 mg/dL
  LACTATE DEHYDROGENASE: 144.67 u/L
  LIPASE: 8.83 u/L
  PHOSPHORUS: 11.72 mg/dL
  POTASSIUM: 5.99 MEQ/L
  SODIUM: 143.57 MEQ/L
  TOTAL BILIRUBIN: 0.2 mg/dL
  TOTAL PROTEIN: 6.1 G/DL
  URIC ACID: 1.38 mg/dL
[2]
  ABSOLUTE BASOPHIL: 0 CELLS/uL
  ABSOLUTE EOSINOPHIL: 248.67 CELLS/uL
  ABSOLUTE LYMPHOCYTE: 12977.83 CELLS/uL
  ABSOLUTE MONOCYTE: 19.67 CELLS/uL
  ABSOLUTE SEGMENTED NEUTROPHIL: 1137.17 CELLS/uL
  BASOPHIL: 0%
  EOSINOPHIL: 1.67%
  ERYTHROCYTE COUNT: 5.82 x10E6/uL
  HEMATOCRIT: 36.35%
  HEMOGLOBIN: 13.58 G/DL
  LEUKOCYTE COUNT: 14.38 x10E3/uL
  LYMPHOCYTE: 90.5%
  MEAN CORPUSCULAR HEMOGLOBIN: 23.32 pg
  MEAN CORPUSCULAR HEMOGLOBIN CONCENTRATION: 37.42 G/DL
  MEAN CORPUSCULAR VOLUME: 62.42 fL
  MONOCYTE: 0.17%
  NEUTROPHIL: 7.67%
  NUCLEATED RED BLOOD CELLS: 0 /100WBC
  PLATELET COUNT: 1337.67 x10E3/uL
  ALANINE AMINOTRANSFERASE: 48.5 u/L
  ALBUMIN: 4.32 G/DL
  ALKALINE PHOSPHATASE: 354.33 u/L
  ASPARTATE AMINOTRANSFERASE: 80 u/L
  BLOOD UREA NITROGEN: 16 mg/dL
  CARBON DIOXIDE: 27.33 mmol/L
  CHLORIDE: 100.33 MEQ/L
  CHOLESTEROL: 68 mg/dL
  CREATINE PHOSPHOKINASE: 325.17 u/L
  CREATININE: 0.23 mg/dL
  GLUCOSE: 172 mg/dL
  LACTATE DEHYDROGENASE: 254.83 u/L
  LIPASE: 8.33 u/L
  PHOSPHORUS: 12.17 mg/dL
  POTASSIUM: 6.28 MEQ/L
  SODIUM: 143.57 MEQ/L
  TOTAL BILIRUBIN: 0.18 mg/dL
  TOTAL PROTEIN: 6.12 G/DL
  URIC ACID: 1.78 mg/dL
[3]
  ABSOLUTE BASOPHIL: 0 CELLS/uL
  ABSOLUTE EOSINOPHIL: 161.33 CELLS/uL
  ABSOLUTE LYMPHOCYTE: 8742.33 CELLS/uL
  ABSOLUTE MONOCYTE: 34.33 CELLS/uL
  ABSOLUTE SEGMENTED NEUTROPHIL: 962 CELLS/uL
  BASOPHIL: 0%
  EOSINOPHIL: 1.33%
  ERYTHROCYTE COUNT: 5.57 x10E6/uL
  HEMATOCRIT: 35.07%
  HEMOGLOBIN: 13.23 G/DL
  LEUKOCYTE COUNT: 9.9 x10E3/uL
  LYMPHOCYTE: 88.33%
  MEAN CORPUSCULAR HEMOGLOBIN: 23.77 pg
  MEAN CORPUSCULAR HEMOGLOBIN CONCENTRATION: 37.7 G/DL
  MEAN CORPUSCULAR VOLUME: 63.03 fL
  MONOCYTE: 0.33%
  NEUTROPHIL: 10%
  NUCLEATED RED BLOOD CELLS: 0 /100WBC
  PLATELET COUNT: 1263 x10E3/uL
  ALANINE AMINOTRANSFERASE: 47.67 u/L
  ALBUMIN: 4.13 G/DL
  ALKALINE PHOSPHATASE: 345 u/L
  ASPARTATE AMINOTRANSFERASE: 82.33 u/L
  BLOOD UREA NITROGEN: 15.33 mg/dL
  CARBON DIOXIDE: 27.33 mmol/L
  CHLORIDE: 103 MEQ/L
  CHOLESTEROL: 60.67 mg/dL
  CREATINE PHOSPHOKINASE: 172.67 u/L
  CREATININE: 0.19 mg/dL
  GLUCOSE: 170.33 mg/dL
  LACTATE DEHYDROGENASE: 114 u/L
  LIPASE: 8 u/L
  PHOSPHORUS: 12.83 mg/dL
  POTASSIUM: 5.99 MEQ/L
  SODIUM: 145.83 MEQ/L
  TOTAL BILIRUBIN: 0.2 mg/dL
  TOTAL PROTEIN: 6.17 G/DL
  URIC ACID: 1.33 mg/dL
